Data: patent publication US20110104057A1, “Novel [F-18]-labelled L-glutamic acid and L-glutamine derivatives (II), their use and processes for their preparation” (BAYER SCHERING PHARMA AKTIENGESELLSCHAFT, priority 2008, published 2011)

Key:
A549 cells = test: competition cell experiment: inhibition of the uptake of 4R/S-[F-18]F-L-glutamic acid (tracer); assay type: cell-based, human; conditions: for % Tracer uptake: A549 cells, 10 min of incubation with 0.250 MBq of 4R/S-[F-18]F-L-Glu in PBS buffer, competitor concentration 1 mM, control = 100.0; for inhibition of tracer uptake: competitor 1 mM, tracer 4R/S-[F-18]F-L-glutamic acid
Experimental: The uptake of the glutamic acid derivatives according to the invention into tumour cells was investigated in cell experiments. Here, the uptake of a radiolabelled glutamic acid derivative (4R/S—[F-18]F-L-glutamic acid) was examined in the presence of the compounds according to the invention (competition experiments). The compounds according to the invention were employed in excess (1 mM) over 4R/S—[F-18]F-L-glutamic acid (tracer).
FIG. 1: graphic representation of the inhibition of the cellular uptake of 4R/S—[F-18]F-L-Glu by compounds according to the invention branched in the 4-position in A549 cells (human non-small-cell bronchial carcinoma) after 10 min of incubation.

A460 tumour cells = test: cellular uptake of the F-18-labelled compound in tumour cells; assay type: cell-based, human; conditions: for uptake, % of the dose per 100 000 cells: after 30 min of incubation
Source text: Following labelling with F-18, (4S)-4-(6-[F-18]fluorohexyl)-L-Glu was examined in cell experiments with A460 tumour cells (human non-small-cell bronchial carcinoma).

[1] = test system: rats bearing H460 tumours; test: organ distribution after i.v. administration to animals bearing H460 tumours; assay type: in vivo; conditions: 100 min after i.v. administration of 15 MBq
Experimental: (§1) (2S,4S)-2-Amino-4-(6-[F-18]fluorohexyl)pentanedioic acid was studied in rats bearing H460 tumours using PET imaging and subsequent organ distribution.
(§2) The highest enrichment at 0.52% of the injected dose per g in the tumour was measured at a time of 100 min after injection. […] Thus, in these organs, an uptake of 0.36% ID/g and 0.20% ID/g, respectively, was observed after 100 min. Uptake into the bones was 0.43% ID/g.

[2] = test system: rats bearing H460 tumours; test: PET imaging in rats bearing H460 tumours; assay type: in vivo
Experimental: as §1, §2
60 min after i.v. administration of 15 MBq of (2S,4S)-2-amino-4-(6-[F-18]fluorohexyl)pentanedioic acid to rats bearing H460 tumours, data acquisition with a PET scanner (Inveon) was started for 30 minutes.
FIG. 3. PET study of 60 to 90 min after injection of (2S,4S)-2-amino-4-(6-[F-18]fluorohexyl)pentanedioic acid into mice bearing H460 tumours (analysis of sections)
FIG. 4. PET study of 60 to 90 min after injection of (2S,4S)-2-amino-4-(6-[F-18]fluorohexyl)pentanedioic acid into mice bearing H460 tumours (whole body imaging)

[3] = PET 60-90 min after i.v. administration of 15 MBq

NC(CC(F)C(=O)O)C(=O)O (racemic) [4-(R/S)-fluoro-D/L-Glu]
% Tracer uptake (A549 cells): 16.3%

N[C@@H](C[C@H](CCCCCC[18F])C(=O)O)C(=O)O [(2S,4S)-2-Amino-4-(6-[F-18]fluorohexyl)pentanedioic acid]
uptake, % of the dose per 100 000 cells (A460 tumour cells; listed as 4-(6-[F-18]fluorohexyl)-L-Glu): 11.2 % of the dose per 100 000 cells | uptake, % of the dose per 100 000 cells (A460 tumour cells; listed as (4S)-4-(6-[F-18]fluorohexyl)-L-Glu): 11.2 % of the dose per 100 000 cell | time course of cellular uptake (A460 tumour cells; tumour cells, F-18-labelled compound): time-dependent cellular uptake | % ID/g Tumour ([1]; H460 tumour): 0.52 % ID/g | % ID/g Blood ([1]; H460 tumour bearing animals): 0.04 % ID/g | % ID/g Bones ([1]; H460 tumour bearing animals): 0.43 % ID/g | % ID/g Kidney ([1]; H460 tumour bearing animals): 0.36 % ID/g | % ID/g Liver ([1]; H460 tumour bearing animals): 0.08 % ID/g | % ID/g Muscle ([1]; H460 tumour bearing animals): 0.02 % ID/g | % ID/g Pancreas ([1]; H460 tumour bearing animals): 0.20 % ID/g | PET image analysis: enrichment in the remainder of the body [2, 3]: low enrichment | PET image analysis: uptake into the H460 tumour [2, 3]: high uptake | PET study: uptake or excretion in the kidneys or pancreas ([2]; PET study): transient uptake or excretion

NC(CC(OC1CC(F)C1)C(=O)O)C(=O)O [(4S)-4-(3-fluorocyclobutoxy)-Glu, 2-Amino-4-(3-fluorocyclobutoxy)pentanedioic acid]
% Tracer uptake (A549 cells): 5.7% | inhibition of tracer uptake (A549 cells): > 90%

N[C@@H](C[C@H](CCCF)C(=O)O)C(=O)O [(4S)-4-(3-fluoropropyl)-Glu]
% Tracer uptake (A549 cells): 5.4%

N[C@@H](C[C@H](CCCCCCF)C(=O)O)C(=O)O [(4S)-4-(6-fluorohexyl)-Glu, (2S,4S)-2-Amino-4-(6-fluorohexyl)pentanedioic acid]
% Tracer uptake (A549 cells): 6.3% | inhibition of tracer uptake (A549 cells): 94%

N[C@@H](C[C@H](O)C(=O)O)C(=O)O [(4S)-hydroxy-Glu]
% Tracer uptake (A549 cells): 13.2%

C[C@@H](C[C@H](N)C(=O)O)C(=O)O [(4S)-methyl-Glu]
% Tracer uptake (A549 cells): 7.7%

N[C@@H](CCC(=O)O)C(=O)O [L-Glu, L-configured glutamic acid]
% Tracer uptake (A549 cells): 12.6% | inhibition of tracer uptake (A549 cells): 87%
